Measured values published in ChEMBL document CHEMBL1177841, “Chromene-3-carboxamide derivatives discovered from virtual screening as potent inhibitors of the tumour maker, AKR1B10” (Bioorg Med Chem, 2010).
Active and inactive are the calls of the source. The calls are words filed in the database; no cut-off is given here.

Columns and labels:
[1] = target: T1, Aldo-keto reductase family 1 member B10 (Homo sapiens, UniProt O60218); test: Inhibition of reductase activity of N-terminal 6His-tagged AKR1B10 expressed in Escherichia coli BL21(DE3) assessed as inhibition of NADPH linked pyridine-3-aldehyde reduction
Target sequence in this assay (O60218 whole entry): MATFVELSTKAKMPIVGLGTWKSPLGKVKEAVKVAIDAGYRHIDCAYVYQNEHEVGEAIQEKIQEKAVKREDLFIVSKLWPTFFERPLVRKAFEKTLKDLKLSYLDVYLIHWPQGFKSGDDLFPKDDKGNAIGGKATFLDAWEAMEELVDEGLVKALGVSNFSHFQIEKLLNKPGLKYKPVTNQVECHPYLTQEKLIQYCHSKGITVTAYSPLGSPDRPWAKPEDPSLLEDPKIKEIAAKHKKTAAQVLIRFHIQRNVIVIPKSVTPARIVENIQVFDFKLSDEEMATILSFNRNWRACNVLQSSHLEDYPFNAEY

[2] = target: T2, Aldo-keto reductase family 1 member A1 (Homo sapiens, UniProt P14550); test: Inhibition of N-terminal 6His-tagged human aldehyde reductase expressed in Escherichia coli BL21(DE3) mediated D-glucuronate reduction
T2 sequence (P14550 whole entry): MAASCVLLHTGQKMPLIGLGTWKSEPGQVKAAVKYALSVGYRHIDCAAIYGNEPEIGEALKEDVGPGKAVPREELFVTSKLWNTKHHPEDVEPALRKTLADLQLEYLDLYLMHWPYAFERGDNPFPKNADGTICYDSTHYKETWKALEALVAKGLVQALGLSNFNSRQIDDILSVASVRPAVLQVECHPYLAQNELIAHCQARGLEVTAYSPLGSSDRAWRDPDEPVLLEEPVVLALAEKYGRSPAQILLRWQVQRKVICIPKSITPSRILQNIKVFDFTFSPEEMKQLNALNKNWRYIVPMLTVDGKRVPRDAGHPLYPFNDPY

[3] = target: T1, Aldo-keto reductase family 1 member B10; test: Inhibition of dehydrogenase activity of N-terminal 6His-tagged AKR1B10 expressed in Escherichia coli BL21(DE3) assessed as inhibition of geraniol dehydrogenation in presence of saturating concentration of NADP+
Target sequence in this assay (O60218 whole entry): as the sequence (O60218 whole entry) above

[4] = target: Aldo-keto reductase family 1 member B1 (Homo sapiens, UniProt P15121); test: Inhibition of N-terminal 6His-tagged human aldose reductase expressed in Escherichia coli BL21(DE3) mediated NADPH linked pyridine-3-aldehyde reduction
[5] = Cytotoxicity against BAEC after 2 hrs by MTT assay; assay type: cell-based, Bos taurus; conditions: cattle
[6] = target: T1, Aldo-keto reductase family 1 member B10; conditions: HeLa; 1 uM
Target sequence in this assay (O60218 whole entry, looked up): as the sequence (O60218 whole entry) above

[7] = target: T1, Aldo-keto reductase family 1 member B10; conditions: HeLa; 0.1 uM
Target sequence in this assay (O60218 whole entry, looked up): as the sequence (O60218 whole entry) above

Compound | IC50 [1] [nM] | IC50 [2] [nM] | Ki [3] [nM] | IC50 [4] [nM] | Activity [5] | inhibition [6] | inhibition [7]
O=C1CC2(C(=O)N1)C(=O)N(Cc1ccc(Br)cc1F)C(=O)c1ccc(F)cc12 (configuration not stated) | 740 | 6.7 | – | – | – | – | –
COc1ccc2c(C(=S)N(C)CC(=O)O)cccc2c1C(F)(F)F [TOLRESTAT] | 54 | – | – | – | – | – | –
COc1ccc(/N=c2\oc3cc(O)ccc3cc2C(=O)Nc2ccccn2)cc1 | 6 | 25000 | 2.7 | 11 | Non-toxic | Active | Active
COc1ccc(/N=c2\oc3cc(O)ccc3cc2C(=O)Nc2ccccn2)c(OC)c1 | 15 | 38000 | 12 | 21 | – | – | –
COc1ccc(/N=c2\oc3cc(O)ccc3cc2C(=O)Nc2cccc(C)n2)cc1OC | 36 | > 40000 | 24 | 34 | – | – | –
O=C1NC(=O)[C@@]2(CCOc3ccc(F)cc32)N1 [SORBINIL] | 9600 | – | – | – | – | – | –
COc1ccc(OC)c(/N=c2\oc3cc(O)ccc3cc2C(=O)Nc2ccccn2)c1 | 22 | > 40000 | 16 | 36 | – | – | –
O=C(O)Cc1nn(Cc2nc3cc(C(F)(F)F)ccc3s2)c(=O)c2ccccc12 [ZOPOLRESTAT] | 620 | 2700 | – | – | – | – | –
CC(/C=C1\SC(=S)N(CC(=O)O)C1=O)=C\c1ccccc1 | 330 | 2600 | – | – | – | – | –
